Data set [1] addresses T1, EthR protein (Mycobacterium tuberculosis, UniProt P9WMC1). Description: Inhibition of interaction of EthR with its target DNA sequence (BIAcore). Conditions: compound 3 μM, EthR 540 nM, 37° C. It counts as binding, M. tuberculosis H37Rv. The procedure:
a) Measurement of the Activity of the Compounds on the Inhibition of Interaction of EthR with its Target DNA Sequence
The in vitro measurements of inhibition of binding of the EthR protein to its target DNA sequence were performed on a machine of BIAcore®2000 type (AB, Uppsala, Sweden).
The chips used are CM5 chips sold by the company GE Healthcare. Both the channels of a chip were activated with a solution containing 200 mM of EDC(N-ethyl-N′-(3-[…])carbodiimide) and 50 mM of NHS (N-hydroxysuccinimide). Next, streptavidin (500 ng/μl in a solution containing 10 mM of sodium acetate (pH 3.5) was injected over 12 minutes at a flow rate of 10 μl/minute. The 106-base-pair biotinylated DNA fragment corresponding to the ethA-R intergene region was deposited on one of the two channels of the chip at a rate of 200 ng/ml in order to obtain stable binding of streptavidin corresponding to 50 RU (resonance units). This DNA fragment was obtained by PCR using the chromosomal DNA of M. tuberculosis H37Rv as matrix and O-270: 5′-[…]-3′ (SEQ ID: No. 1) and O-271: 5′-biotin-[…]-3′ (SEQ ID: No. 2). The second channel was functionalized with a 113-base-pair biotinylated DNA fragment (fragment +14 to +127 of the bla gene of E. coli PCR-amplified using the following oligonucleotides: O-343: 5′-[…]-3′ (SEQ ID: No. 3) and O-344: 5′-biotin-[…]-3′ (SEQ ID: No. 4).
Measurement of the binding of the EthR protein to the immobilized DNA was performed at 37° C. in a reference buffer containing 10 mM of Tris-HCl (pH=7.5), 200 mM of NaCl, 0.1 mM of EDTA, 1 mM of DTT and 1% of DMSO at a flow rate of 20 μl/minute. The specific interaction (SI) of EthR with the 106-base-pair double-stranded DNA sequence, expressed in resonance units, corresponds to the difference in signal observed between the two channels.
For each inhibition measurement, the compounds of the invention are dissolved in the reference buffer at a concentration of 3 μM. The compounds of the invention are then incubated in the presence of the protein (540 nM) at 37° C. for 5 minutes, and each solution is then injected onto the two channels of the chip for 3 minutes at a flow rate of 20 μl/minute. The inhibition values are calculated at the end of the injection according to the following equation: […]
in which SIEthR corresponds to the value measured without ligand and SIEthR+ligand corresponds to the value measured in the presence of to ligand.
A general note: SPR reads the build-up and loss of mass on a sensor chip optically.

The subject of data set [2] is M. bovis BCG. It counts as cell-based, M. bovis BCG 1173P2. The following applies: from MIC of ETH alone (6 μM) and MIC of ETH with 25 μM compound.
The nature of data set [3]: Measurement of the solubility (PBS pH 7.4 vs methanol, LC/MS). It counts as physicochemical. Conditions: pH 7.4, aqueous buffer, kinetic from dmso stock. The procedure:
e) Measurement of the Solubility of the Compounds of the Invention
40 μl of a solution containing a compound of the invention at a concentration of 10 mM in DMSO were diluted in 1.960 ml of methanol, and another 40 μl were diluted in 1.960 ml of a PBS solution containing 675 mM of NaCl, 13.5 mM of KCl, 50 mM of Na2HPO4.2H2O and 10 mM of KH2PO4 at a pH of 7.4. The two solutions were stirred for 24 hours at room temperature, and then centrifuged for 5 minutes and filtered through 0.45 μm filters. 20 μl of each solution were then diluted in 118 μl of methanol and analyzed by liquid chromatography coupled to mass spectrometry (LC/MS). The solubility was determined by the ratio of the areas under the curve of the mass signal for the compound of the invention, according to the following equation: […]

Data set [4] has as its target T1, EthR protein. Description: In vitro measurement of the IC50 (EthR/DNA binding, BIAcore). The arrangement: species or system M. tuberculosis H37Rv. Conditions: six concentrations from 0.11 μM to 27 μM; read-out: IC50. As to the method: b) In Vitro Measurement of the IC50 of the Compounds of the Invention.
The in vitro measurement of this datum was performed according to the same principle as for the measurement of inhibition of the EthR/DNA binding using the BIAcore technique.
The specific interaction between EthR and the specific 106-bp DNA fragment was measured on a range of six concentrations of the compounds of the invention, this range extending from 0.11 μM to 27 μM. The IC50 values are then extrapolated from the sigmoid curves obtained.

The inhibition is how much of the control response was suppressed. Usually solubility stands for the dissolved amount per volume that the medium holds. Higher therefore signals much dissolved substance. By IC50 is commonly meant the concentration needed to halve the response being measured.

Each structure is given as a SMILES string. In brackets after ≈: the same amount, converted by molar mass.

T1 sequence (P9WMC1 whole entry, looked up): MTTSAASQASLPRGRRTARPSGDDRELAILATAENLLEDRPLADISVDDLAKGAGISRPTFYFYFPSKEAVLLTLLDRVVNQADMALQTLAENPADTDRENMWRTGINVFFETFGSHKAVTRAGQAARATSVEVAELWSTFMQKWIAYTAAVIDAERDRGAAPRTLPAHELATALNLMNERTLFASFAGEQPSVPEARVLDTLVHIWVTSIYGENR

Take `[N-]=[N+]=NCC(=O)N1CCC(c2nc(-c3ccsc3)no2)CC1` [Compound 3, 2-azido-1-[4-(3-thiophen-3-yl[1,2,4]oxadiazol-5-yl)piperid-1-yl]ethanone]: the inhibition at 3 µM in data set [1] is 14%. For the same compound, the Potentiation % in data set [2] was found to be 500%.

`[N-]=[N+]=NCC(=O)N1CCC(c2nc(-c3ccccc3)no2)CC1` [Compound 4, 2-azido-1-[4-(3-phenyl[1,2,4]oxadiazol-5-yl)piperid-1-yl]ethanone]: in data set [1], the inhibition at 3 µM worked out at 15%. Besides, the Potentiation % in data set [2] is given as 500%.

As for `[N-]=[N+]=NCC(=O)N1CCC(c2nc(-c3ccc(F)cc3)no2)CC1` [Compound 5, 2-azido-1-{4-[3-(4-fluorophenyl)[1,2,4]oxadiazol-5-yl]piperid-1-yl}ethanone], in data set [1], the inhibition at 3 µM is 15%. The same compound gave a solubility at 24 h in data set [3] of 9 µg/mL (≈ 27.2 µM).

The compound `[N-]=[N+]=NCC(=O)N1CCC(c2nc(-c3ccc4c(c3)OCO4)no2)CC1` [Compound 12, 2-azido-1-[4-(3-benzo[1,3]dioxol-5-yl[1,2,4]oxadiazol-5-yl)piperid-1-yl]ethanone] yielded an inhibition at 3 µM in data set [1] of 19%. Further, the solubility at 24 h in data set [3] worked out at 71 µg/mL (≈ 199 µM).

For the compound `COc1ccc2nc(-c3noc(C4CCN(C(=O)CN=[N+]=[N-])CC4)n3)sc2c1` [Compound 15], at 3 µM the inhibition in data set [1] was 94%. In data set [4], the IC50 is 1560 nM.

In data set [3], `CC(=O)N1CCC(c2nc(-c3cccs3)no2)CC1` [Compound 17, 1-[4-(3-thiophen-2-yl[1,2,4]oxadiazol-5-yl)piperid-1-yl]ethanone] yielded a solubility at 24 h of 55.5 µg/mL (≈ 200 µM).

The compound `C#CCCC(=O)N1CCC(c2nc(-c3cccs3)no2)CC1` [Compound 21, 1-[4-(3-thiophen-2-yl[1,2,4]oxadiazol-5-yl)piperid-1-yl]pent-4-yn-1-one] yielded an inhibition at 3 µM in data set [1] of 20%. Besides, the Potentiation % in data set [2] is on record as 500%.

In turn, `CC(C)CCC(=O)N1CCC(c2nc(-c3cccs3)no2)CC1` [Compound 25, 4-methyl-1-[4-(3-thiophen-2-yl[1,2,4]oxadiazol-5-yl)piperid-1-yl]pentan-1-one] registered an inhibition at 3 µM in data set [1] of 70%. The Potentiation % in data set [2] is reported as 500%. Further, the IC50 in data set [4] was found to be 910 nM.

`O=C(CCC(F)(F)F)N1CCC(c2nc(-c3cccs3)no2)CC1` [Compound 27, 4,4,4-trifluoro-1-[4-(3-thiophen-2-yl[1,2,4]oxadiazol-5-yl)piperid-1-yl]butan-1-one] displayed an inhibition at 3 µM in data set [1] of 96%. For the same compound, in data set [2], the Potentiation % is on record as 500%. Besides, the IC50 in data set [4] stood at 1570 nM.

In turn, `COCC(=O)N1CCC(c2nc(-c3cccs3)no2)CC1` [Compound 28, 2-methoxy-1-[4-(3-thiophen-2-yl[1,2,4]oxadiazol-5-yl)piperid-1-yl]ethanone] returned a solubility at 24 h in data set [3] of 61.5 µg/mL (≈ 200 µM).

Consider `O=C(O)CCC(=O)N1CCC(c2nc(-c3cccs3)no2)CC1` [Compound 31, 4-oxo-4-[4-(3-thiophen-2-yl[1,2,4]oxadiazol-5-yl)piperid-1-yl]butyric acid], for which the solubility at 24 h in data set [3] came out at 67.1 µg/mL (≈ 200 µM).

In data set [1], `O=C(CCC1CCCC1)N1CCC(c2nc(-c3cccs3)no2)CC1` [Compound 34, 3-cyclopentyl-1-[4-(3-thiophen-2-yl[1,2,4]oxadiazol-5-yl)piperid-1-yl]propan-1-one] registered an inhibition at 3 µM of 48%.

With `O=C(CC1CCCC1)N1CCC(c2nc(-c3cccs3)no2)CC1` [Compound 35, 2-cyclopentyl-1-[4-(3-thiophen-2-yl[1,2,4]oxadiazol-5-yl)piperid-1-yl]ethanone], at 3 µM the inhibition in data set [1] was 52%. In addition, in data set [2], the Potentiation % is reported as 2500%. For the same compound, the IC50 in data set [4] is 1490 nM.

As for `O=C(CC1C=CCC1)N1CCC(c2nc(-c3cccs3)no2)CC1` (stereo not drawn) [Compound 36, 2-cyclopent-2-enyl-1-[4-(3-thiophen-2-yl[1,2,4]oxadiazol-5-yl)piperid-1-yl]-ethanone], the inhibition at 3 µM in data set [1] is 78%. For the same compound, the Potentiation % in data set [2] was 500%. Besides, the IC50 in data set [4] is 1000 nM.

Regarding `O=C(CC1CCCCC1)N1CCC(c2nc(-c3cccs3)no2)CC1` [Compound 37, 2-cyclohexyl-1-[4-(3-thiophen-2-yl[1,2,4]oxadiazol-5-yl)piperid-1-yl]ethanone], 3 µM produced 76% inhibition in data set [1]. The IC50 in data set [4] stood at 3490 nM.

The compound `O=C(CC1CC2CCC1C2)N1CCC(c2nc(-c3cccs3)no2)CC1` (stereo not drawn) [Compound 40, 2-bicyclo[2.2.1]hept-2-yl-1-[4-(3-thiophen-2-yl[1,2,4]oxadiazol-5-yl)piperid-1-yl]ethanone] showed an inhibition at 3 µM in data set [1] of 59%.

`O=C(Cc1ccccc1)N1CCC(c2nc(-c3cccs3)no2)CC1` [Compound 41, 2-phenyl-1-[4-(3-thiophen-2-yl[1,2,4]oxadiazol-5-yl)piperid-1-yl]ethanone] displayed an inhibition at 3 µM in data set [1] of 45%.

As to `O=C(COc1ccccc1)N1CCC(c2nc(-c3cccs3)no2)CC1` [Compound 45, 2-phenoxy-1-[4-(3-thiophen-2-yl[1,2,4]oxadiazol-5-yl)piperid-1-yl]ethanone], testing at 3 µM in data set [1] gave an inhibition of 75%. The Potentiation % in data set [2] is on record as 2500%. In addition, in data set [4], the IC50 came to 1500 nM.

In turn, `S=C(Nc1ccccc1)N1CCC(c2nc(-c3cccs3)no2)CC1` [Compound 49, 4-(3-thiophen-2-yl[1,2,4]oxadiazol-5-yl)piperidine-1-carbothioic acid phenylamide] came in with an inhibition at 3 µM in data set [1] of 86%. The IC50 in data set [4] was 1340 nM.

`O=C(NC1CC1)N1CCC(c2nc(-c3cccs3)no2)CC1` [Compound 51, 4-(3-thiophen-2-yl[1,2,4]oxadiazol-5-yl)piperidine-1-carboxylic acid cyclopropylamide] showed an inhibition at 3 µM in data set [1] of 13%. In data set [3], this compound displayed a solubility at 24 h of 272 µg/mL (≈ 853 µM).

Consider `S=C(NC1CC1)N1CCC(c2nc(-c3cccs3)no2)CC1` [Compound 52, 4-(3-thiophen-2-yl[1,2,4]oxadiazol-5-yl)piperidine-1-carbothioic acid cyclopropylamide], for which at 3 µM the inhibition in data set [1] was 61%.

Regarding `O=S(=O)(Cc1ccccc1)N1CCC(c2nc(-c3cccs3)no2)CC1` [Compound 53, 1-phenylmethanesulfonyl-4-(3-thiophen-2-yl[1,2,4]oxadiazol-5-yl)piperidine], the inhibition at 3 µM in data set [1] was determined as 34%.

`O=C(CC1CC1)N1CCC(c2nc(-c3cccc(N(Cc4ccccc4)Cc4ccccc4)c3)no2)CC1` [Compound 57, 2-cyclopropyl-1-{4-[3-(3-dibenzylaminophenyl)[1,2,4]oxadiazol-5-yl]piperid-1-yl}ethanone]: the inhibition at 3 µM in data set [1] amounted to 46%.

Take `O=C(Cc1cccs1)N1CCC(c2nc(-c3ccc(Br)s3)no2)CC1` [Compound 58, 1-{4-[3-(5-bromothiophen-2-yl)[1,2,4]oxadiazol-5-yl]piperid-1-yl}-2-thiophen-2-ylethanone]: in data set [1], at 3 µM the inhibition was 34%.

As for `N#CCC(=O)N1CCC(c2nc(-c3ccc(Br)s3)no2)CC1` [Compound 59, 3-{4-[3-(5-bromothiophen-2-yl)[1,2,4]oxadiazol-5-yl]piperid-1-yl}-3-oxo-propionitrile], the inhibition at 3 µM in data set [1] is 77%. Besides, the IC50 in data set [4] amounted to 390 nM.

The record behind these values is US8338599B2, “Compounds having a potentiating effect on the activity of ethionamide and uses thereof” (priority 2006, dated 2012).
